This is an account of results in ChEMBL document CHEMBL3407402, “Nintedanib: from discovery to the clinic” (J Med Chem, 2015).

Data set [1] is described as follows: Antitumor activity against human H460 cells in xenograft model assessed as tumor growth inhibition ratio. Format: functional, NCI-H460. (In xenograft studies the graft and the host belong to different species.)
Data set [2] in a line: AUC in Rhesus monkey at 40 mg/kg, po. It counts as ADME, organism-based, Macaca mulatta. More on the design: dose 40 mg/kg, route oral. Conditions: plasma.
The nature of data set [3]: Oral bioavailability in Wistar rat at 50 mg/kg. Format: ADME, organism-based. Conditions: in vivo.
Data set [4] is described as follows: Cmax in CD1 mouse at 50 mg/kg, po. Format: ADME, organism-based. More on the design: dose 50 mg/kg, route oral. The note with it: in vivo.
The nature of data set [5]: Half life in CD1 mouse at 50 mg/kg, po. It counts as ADME, organism-based. More on the design: dose 50 mg/kg, route oral. Conditions: in vivo.
Data set [6] is described as follows: Clearance in Cynomolgus monkey at 5 mg/kg, iv. The note with it: in vivo. It counts as ADME, organism-based, Macaca fascicularis. More on the design: dose 5 mg/kg, route intravenous.
Data set [7] is described as follows: Mean residence time in Rhesus monkey at 5 mg/kg, iv. It counts as ADME, organism-based, Macaca mulatta. More on the design: dose 5 mg/kg, route intravenous. The note with it: in vivo.
Data set [8] has as its system Rattus norvegicus. The data set is described as follows: Half life in Wistar rat at 2 mg/kg, iv. It counts as ADME, organism-based. More on the design: dose 2 mg/kg, route intravenous. Conditions: in vivo.
The nature of data set [9]: Volume of distribution at steady state in Cynomolgus monkey at 5 mg/kg, iv. It counts as ADME, organism-based, Macaca fascicularis. More on the design: dose 5 mg/kg, route intravenous. The note with it: in vivo, read-out: Vdss.
Data set [10] can be described thus: Cmax in Cynomolgus monkey at 5 mg/kg, iv. Format: ADME, organism-based, Macaca fascicularis. More on the design: dose 5 mg/kg, route intravenous. Conditions: in vivo.
Data set [11] can be described thus: Inhibition of VEGF-stimulated HSMEC cell proliferation. It counts as functional. Conditions: Homo sapiens.
Data set [12] is described as follows: AUC in Wistar rat at 50 mg/kg, po. It counts as ADME, organism-based. More on the design: dose 50 mg/kg, route oral. The note with it: plasma.
Data set [13] can be described thus: Drug excretion in healthy male urine after 72 hrs. Format: ADME, tissue-based. Conditions: human, read-out: Drug excretion.
Data set [14] is described as follows: Cmax in Wistar rat at 50 mg/kg, po. Conditions: in vivo. Format: ADME, organism-based. More on the design: dose 50 mg/kg, route oral.
Data set [15] is described as follows: Cmax in Rhesus monkey at 5 mg/kg, iv. It counts as ADME, organism-based, Macaca mulatta. More on the design: dose 5 mg/kg, route intravenous. Conditions: in vivo.
Data set [16] in a line: Drug excretion in healthy male via biliary system into feces over 120 hrs. Format: ADME, tissue-based. The note with it: human, faeces, read-out: Drug excretion.
Data set [17] is described as follows: AUC in Wistar rat at 2 mg/kg, iv. It counts as ADME, organism-based. More on the design: dose 2 mg/kg, route intravenous. The note with it: plasma.
The nature of data set [18]: Cmax in Rhesus monkey at 40 mg/kg, po. More on the design: dose 40 mg/kg, route oral. Conditions: in vivo. Format: ADME, organism-based, Macaca mulatta.
Data set [19] can be described thus: AUC in CD1 mouse at 50 mg/kg, po. More on the design: dose 50 mg/kg, route oral. Conditions: plasma. It counts as ADME, organism-based.
The nature of data set [20]: Cmax in Wistar rat at 2 mg/kg, iv. It counts as ADME, organism-based. More on the design: dose 2 mg/kg, route intravenous. Conditions: in vivo.
The nature of data set [21]: Clearance in Wistar rat at 2 mg/kg, iv. It counts as ADME, organism-based. Conditions: in vivo. More on the design: dose 2 mg/kg, route intravenous.
The nature of data set [22]: Drug excretion in healthy male after 24 to 48 hrs. It counts as ADME, organism-based. The note with it: human, in vivo, read-out: Drug excretion.
Data set [23] can be described thus: Volume of distribution at steady state in Rhesus monkey at 5 mg/kg, iv. Format: ADME, organism-based, Macaca mulatta. More on the design: dose 5 mg/kg, route intravenous. Conditions: in vivo, read-out: Vdss.
Data set [24] in a line: AUC in Rhesus monkey at 5 mg/kg, iv. It counts as ADME, organism-based, Macaca mulatta. More on the design: dose 5 mg/kg, route intravenous. The note with it: plasma.
The nature of data set [25]: Clearance in Rhesus monkey at 5 mg/kg, iv. Format: ADME, organism-based, Macaca mulatta. More on the design: dose 5 mg/kg, route intravenous. Conditions: in vivo.
Data set [26] in a line: AUC in Cynomolgus monkey at 40 mg/kg, po. Format: ADME, organism-based, Macaca fascicularis. More on the design: dose 40 mg/kg, route oral. The note with it: plasma.
A short description of data set [27]: AUC in Cynomolgus monkey at 5 mg/kg, iv. It counts as ADME, organism-based, Macaca fascicularis. More on the design: dose 5 mg/kg, route intravenous. The note with it: plasma.
A short description of another data set: clinical. The note with it: male, human, in vivo.
A short description of data set [28]: Oral bioavailability in Cynomolgus monkey at 40 mg/kg. Format: ADME, organism-based, Macaca fascicularis. The note with it: in vivo.
Data set [29] is described as follows: Oral bioavailability in Rhesus monkey at 40 mg/kg. Format: ADME, organism-based, Macaca mulatta. The note with it: in vivo.
The nature of the next data set: in vivo. The note with it: rhesus monkey, iv, 5 mg/kg.
Data set [30] has as its system Rattus norvegicus. The data set is described as follows: Mean residence time in Wistar rat at 2 mg/kg, iv. It counts as ADME, organism-based. More on the design: dose 2 mg/kg, route intravenous. Conditions: in vivo.
A short description of data set [31]: Cmax in cynomolgus monkey at 40 mg/kg, po. Format: ADME, organism-based, Macaca fascicularis. More on the design: dose 40 mg/kg, route oral. The note with it: in vivo.
Data set [32] can be described thus: Drug excretion in healthy male urine/feces after 96 hrs. Format: ADME, tissue-based. The note with it: human, urine and faeces, read-out: Drug excretion.
Data set [33] in a line: Mean residence time in Cynomolgus monkey at 5 mg/kg, iv. Conditions: in vivo. More on the design: dose 5 mg/kg, route intravenous. It counts as ADME, organism-based, Macaca fascicularis.
The nature of data set [34]: Mean residence time in CD1 mouse at 50 mg/kg, po. Format: ADME, organism-based. More on the design: dose 50 mg/kg, route oral. Conditions: in vivo.
The nature of data set [35]: Half life in Cynomolgus monkey at 5 mg/kg, iv. More on the design: dose 5 mg/kg, route intravenous. Conditions: in vivo. It counts as ADME, organism-based, Macaca fascicularis.

Description for clinical: Terminal half life in healthy male
Description for in vivo: Half life in Rhesus monkey at 5 mg/kg, iv

The term TGI denotes the reduction of tumour growth relative to the control group. In the case of `CC(=O)O[C@@]12CO[C@@H]1C[C@H](O)[C@@]1(C)C(=O)[C@H](O)C3=C(C)[C@@H](OC(=O)[C@H](O)[C@@H](NC(=O)OC(C)(C)C)c4ccccc4)C[C@@](O)([C@@H](OC(=O)c4ccccc4)[C@H]21)C3(C)C.O.O.O` [DOCETAXEL], the TGI in [1] is 66%.
By AUC is commonly meant concentration integrated over time. As usually defined, the bioavailability is the share of a dose that reaches the circulation, judged against a reference dose that is usually intravenous. As a reminder, the Cmax is the peak of the concentration-time curve. Broadly, the half-life is the time in which the quantity being followed falls by half. By clearance is commonly meant the volume of plasma or blood freed of the substance per unit of time. As usually defined, the MRT is a mean duration of stay, worked out from the concentration-time curve. As a reminder, the EC50 is the midpoint of the concentration-response curve. For `CCS(=O)(=O)O.COC(=O)c1ccc2c(c1)NC(=O)/C2=C(\Nc1ccc(N(C)C(=O)CN2CCN(C)CC2)cc1)c1ccccc1` [NINTEDANIB ESYLATE], the AUC in [2] is 4.44 µg·h/mL; in [12], 0.375 µg·h/mL; in data set [17], 0.181 µg·h/mL; in data set [19], 2.72 µg·h/mL; in data set [24], 2.83 µg·h/mL; in [26], 2.39 µg·h/mL. In addition, in data set [27], the AUC came to 2.26 µg·h/mL. The bioavailability in data set [3] was determined as 11.9%; in [28] it was 13.2%; in data set [29], 23.8%. For the same compound, the Cmax in data set [4] is 0.547 µg/mL; in data set [10], 1.3 µg/mL; in [14], 0.105 µg/mL; in data set [15] it was 1.09 µg/mL; in data set [18] it was 0.311 µg/mL; in [20], 0.124 µg/mL. The same compound gave a Cmax in data set [31] of 0.175 µg/mL. Also, the half-life in data set [5] was 5.15 h; in “clinical”, 13 h; in the data set “in vivo” it was 7.09 h; in [35], 5.95 h. Besides, the clearance is 2.25 L/h/kg in data set [6], 12.1 L/h/kg in [21] and 1.81 L/h/kg in data set [25]. For the same compound, the MRT is 5.7 h in [7], 3.25 h in the data set on Rattus norvegicus [30], 3.82 h in [33] and 5.19 h in [34]. Besides, the t1/2 in the data set with Rattus norvegicus [8] is 3.95 h. For the same compound, the Vd stood at 8.64 L/kg in data set [9] and 10.4 L/kg in data set [23]. For the same compound, in data set [11], the EC50 was less than 0.01 µM. For the same compound, the dose excreted at 72 h in data set [13] was 0.7%. Further, the dose excreted at 120 h in data set [16] amounted to 93.4%. Further, in data set [1], the TGI came out at 75%. Besides, the dose excreted in [22] was 56.3%. The dose excreted at 96 h in data set [32] turned out to be 92.4%.
